Columns and labels:
[1] = system: velvetleaf; assay: Test A preemergence; type: in vivo, Abutilon theophrasti; settings: 0 to 100 scale (0 no effect, 100 complete control)
Source text: (§1) Seeds of plant species selected from barnyardgrass (Echinochloa crus-galli), crabgrass, large (large crabgrass, Digitaria sanguinalis), kochia (Kochia scoparia), ragweed (common ragweed, Ambrosia elatior), foxtail, giant (giant foxtail, Setaria faberii), morningglory (Ipomoea spp.), pigweed (Amaranthus retroflexus), velvetleaf (Abutilon theophrasti), ryegrass, Italian (Italian ryegrass, Lolium multiflorum), wheat (Triticum aestivum), and corn (Zea mays) were planted into a blend of loam soil and sand and treated preemergence with a directed soil spray using test chemicals formulated in a non-phytotoxic solvent mixture which included a surfactant. At the same time, plants selected from these crop and weed species and also blackgrass (Alopecurus myosuroides), and galium (catchweed bedstraw, Galium aparine), were planted in pots containing the same blend of loam soil and sand and treated with postemergence applications of test chemicals formulated in the same manner. Plants ranged in height from 2 to 10 cm and were in the one- to two-leaf stage for the postemergence treatment. […] A dash (-) response means no test result.

[2] = system: corn; assay: Test A postemergence; type: in vivo, Zea mays; settings: 0 to 100 scale (0 no effect, 100 complete control), approx. 10 d
Method in brief: (§2)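 Pre- and postemergence spray tests in a loam soil–sand mixture: seeded soil received a directed spray, while established seedlings 2–10 cm high at the one- to two-leaf stage were treated over the top. Compounds were carried in non-phytotoxic solvent with surfactant.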

[3] = system: corn; assay: Test A preemergence; type: in vivo, Zea mays; settings: 0 to 100 scale (0 no effect, 100 complete control)
Source text: as §1

[4] = system: sedge, umbrella; assay: Test B flooded paddy test; type: in vivo, Cyperus difformis; settings: applied to paddy water at 2-leaf stage, visual rating after 13 to 15 d, scale 0 (no effect) to 100 (complete control)
Source text: (§3) At time of treatment, test pots were flooded to 3 cm above the soil surface, treated by application of test compounds directly to the paddy water, and then maintained at that water depth for the duration of the test. Treated plants and controls were maintained in a greenhouse for 13 to 15 d, after which time all species were compared to controls and visually evaluated. […] A dash (-) response means no test result.

[5] = system: crabgrass, large; assay: Test A postemergence; type: in vivo, Digitaria sanguinalis; settings: 0 to 100 scale (0 no effect, 100 complete control), approx. 10 d
Source text: as §1

[6] = system: morningglory; assay: Test A postemergence; type: in vivo, Ipomoea spp.; settings: 0 to 100 scale (0 no effect, 100 complete control), approx. 10 d
Source text: as §1

[7] = system: velvetleaf; assay: Test A postemergence; type: in vivo, Abutilon theophrasti; settings: 0 to 100 scale (0 no effect, 100 complete control), approx. 10 d
Source text: as §1

[8] = system: foxtail, giant; assay: Test A postemergence; type: in vivo, Setaria faberii; settings: 0 to 100 scale (0 no effect, 100 complete control), approx. 10 d
Method in brief: as §2

[9] = system: ducksalad; assay: Test B flooded paddy test; type: in vivo, Heteranthera limosa; settings: applied to paddy water at 2-leaf stage, visual rating after 13 to 15 d, scale 0 (no effect) to 100 (complete control)
Source text: as §3

[10] = system: barnyardgrass; assay: Test A preemergence; type: in vivo, Echinochloa crus-galli; settings: 0 to 100 scale (0 no effect, 100 complete control)
Method in brief: as §2

[11] = system: morningglory; assay: Test A preemergence; type: in vivo, Ipomoea spp.; settings: 0 to 100 scale (0 no effect, 100 complete control)
Source text: as §1

[12] = system: barnyardgrass; assay: Test B flooded paddy test; type: in vivo, Echinochloa crus-galli; settings: applied to paddy water at 2-leaf stage, visual rating after 13 to 15 d, scale 0 (no effect) to 100 (complete control)
Source text: as §3

[13] = system: pigweed; assay: Test A preemergence; type: in vivo, Amaranthus retroflexus; settings: 0 to 100 scale (0 no effect, 100 complete control)
Method in brief: as §2

[14] = system: rice; assay: Test B flooded paddy test; type: in vivo, Oryza sativa; settings: applied to paddy water at 2-leaf stage, visual rating after 13 to 15 d, scale 0 (no effect) to 100 (complete control)
Source text: as §3

[15] = system: pigweed; assay: Test A postemergence; type: in vivo, Amaranthus retroflexus; settings: 0 to 100 scale (0 no effect, 100 complete control), approx. 10 d
Method in brief: as §2

[16] = system: foxtail, giant; assay: Test A preemergence; type: in vivo, Setaria faberii; settings: 0 to 100 scale (0 no effect, 100 complete control)
Method in brief: as §2

[17] = system: wheat; assay: Test A postemergence; type: in vivo, Triticum aestivum; settings: 0 to 100 scale (0 no effect, 100 complete control), approx. 10 d
Method in brief: as §2

[18] = system: crabgrass, large; assay: Test A preemergence; type: in vivo, Digitaria sanguinalis; settings: 0 to 100 scale (0 no effect, 100 complete control)
Source text: as §1

[19] = system: barnyardgrass; assay: Test A postemergence; type: in vivo, Echinochloa crus-galli; settings: 0 to 100 scale (0 no effect, 100 complete control), approx. 10 d
Method in brief: as §2

[20] = system: wheat; assay: Test A preemergence; type: in vivo, Triticum aestivum; settings: 0 to 100 scale (0 no effect, 100 complete control)
Source text: as §1

| Structure (SMILES) | Plant response rating, Velvetleaf ([1]; 125 g ai/ha) | Plant response rating, Velvetleaf ([1]; 500 g ai/ha, approx. 10 d) | Plant response rating, Corn ([2]; 125 g ai/ha) | Plant response rating, Corn ([2]; 500 g ai/ha) | Plant response rating, Corn ([3]; 125 g ai/ha) | Plant response rating, Corn ([3]; 500 g ai/ha, approx. 10 d) | Plant response rating, Crabgrass, Large ([5]; 125 g ai/ha) | Plant response rating, Crabgrass, Large ([5]; 500 g ai/ha) | Plant response rating, Morningglory ([6]; 125 g ai/ha) | Plant response rating, Morningglory ([6]; 500 g ai/ha) | Plant response rating, Velvetleaf ([7]; 125 g ai/ha) | Plant response rating, Velvetleaf ([7]; 500 g ai/ha) | Plant response rating, Foxtail, Giant ([8]; 125 g ai/ha) | Plant response rating, Foxtail, Giant ([8]; 500 g ai/ha) | Plant response rating, Barnyardgrass ([10]; 125 g ai/ha) | Plant response rating, Barnyardgrass ([10]; 500 g ai/ha, approx. 10 d) | Plant response rating, Morningglory ([11]; 125 g ai/ha) | Plant response rating, Morningglory ([11]; 500 g ai/ha, approx. 10 d) | Plant response rating, Pigweed ([13]; 125 g ai/ha) | Plant response rating, Pigweed ([13]; 500 g ai/ha, approx. 10 d) | also measured |
| --- | --- | --- | --- | --- | --- | --- | --- | --- | --- | --- | --- | --- | --- | --- | --- | --- | --- | --- | --- | --- | --- |
| CCc1nc(-c2cccc(C(F)(F)F)c2)nn1Cc1ccnc(C(F)(F)F)c1 [Compound 11] | 0 | 0 | 20 | 50 | 0 | 0 | 20 | 60 | 80 | 90 | 50 | 100 | 20 | 60 | 0 | 30 | 0 | 20 | 30 | 100 | Plant response rating, Sedge, Umbrella, Flood ([4]; 250 g ai/ha): 0; Plant response rating, Ducksalad, Flood ([9]; 250 g ai/ha): 0; Plant response rating, Barnyardgrass, Flood ([12]; 250 g ai/ha): 0; Plant response rating, Rice, Flood ([14]; 250 g ai/ha): 0; Plant response rating, Pigweed ([15]; 125 g ai/ha): 80; Plant response rating, Pigweed ([15]; 500 g ai/ha): 100; Plant response rating, Foxtail, Giant ([16]; 125 g ai/ha): 20; Plant response rating, Foxtail, Giant ([16]; 500 g ai/ha, approx. 10 d): 90; Plant response rating, Wheat ([17]; 125 g ai/ha): 10; Plant response rating, Wheat ([17]; 500 g ai/ha): 20; Plant response rating, Crabgrass, Large ([18]; 125 g ai/ha): 20; Plant response rating, Crabgrass, Large ([18]; 500 g ai/ha, approx. 10 d): 90; Plant response rating, Barnyardgrass ([19]; 125 g ai/ha): 0; Plant response rating, Barnyardgrass ([19]; 500 g ai/ha): 50; Plant response rating, Wheat ([20]; 125 g ai/ha): 0; Plant response rating, Wheat ([20]; 500 g ai/ha, approx. 10 d): 0 |
| CCCc1nc(-c2ccc(Cl)cc2)nn1Cc1ccnc(C(F)(F)F)c1 [Compound 22] | 20 | 40 | 20 | 50 | 10 | 20 | 100 | 100 | 50 | 80 | 60 | 100 | 70 | 80 | 40 | 70 | 10 | 70 | 100 | 100 | Plant response rating, Sedge, Umbrella, Flood ([4]; 250 g ai/ha): 0; Plant response rating, Ducksalad, Flood ([9]; 250 g ai/ha): 0; Plant response rating, Barnyardgrass, Flood ([12]; 250 g ai/ha): 0; Plant response rating, Rice, Flood ([14]; 250 g ai/ha): 0; Plant response rating, Pigweed ([15]; 125 g ai/ha): 100; Plant response rating, Pigweed ([15]; 500 g ai/ha): 100; Plant response rating, Foxtail, Giant ([16]; 125 g ai/ha): 100; Plant response rating, Foxtail, Giant ([16]; 500 g ai/ha, approx. 10 d): 100; Plant response rating, Wheat ([17]; 125 g ai/ha): 30; Plant response rating, Wheat ([17]; 500 g ai/ha): 40; Plant response rating, Crabgrass, Large ([18]; 125 g ai/ha): 100; Plant response rating, Crabgrass, Large ([18]; 500 g ai/ha, approx. 10 d): 100; Plant response rating, Barnyardgrass ([19]; 125 g ai/ha): 40; Plant response rating, Barnyardgrass ([19]; 500 g ai/ha): 60; Plant response rating, Wheat ([20]; 125 g ai/ha): 10; Plant response rating, Wheat ([20]; 500 g ai/ha, approx. 10 d): 20 |
| CCc1nc(-c2ccc(F)cc2)nn1Cc1ccnc(C(F)(F)F)c1 [Compound 2] | 0 | 40 | 20 | 90 | 0 | 0 | 70 | 100 | 70 | 90 | 30 | 100 | 70 | 90 | 0 | 80 | 0 | 60 | 100 | 100 | Plant response rating, Sedge, Umbrella, Flood ([4]; 125 g ai/ha): 75; Plant response rating, Ducksalad, Flood ([9]; 125 g ai/ha): 30; Plant response rating, Barnyardgrass, Flood ([12]; 125 g ai/ha): 0; Plant response rating, Rice, Flood ([14]; 125 g ai/ha): 20; Plant response rating, Pigweed ([15]; 125 g ai/ha): 100; Plant response rating, Pigweed ([15]; 500 g ai/ha): 100; Plant response rating, Foxtail, Giant ([16]; 125 g ai/ha): 80; Plant response rating, Foxtail, Giant ([16]; 500 g ai/ha, approx. 10 d): 100; Plant response rating, Wheat ([17]; 125 g ai/ha): 0; Plant response rating, Wheat ([17]; 500 g ai/ha): 70; Plant response rating, Crabgrass, Large ([18]; 125 g ai/ha): 100; Plant response rating, Crabgrass, Large ([18]; 500 g ai/ha, approx. 10 d): 100; Plant response rating, Barnyardgrass ([19]; 125 g ai/ha): 20; Plant response rating, Barnyardgrass ([19]; 500 g ai/ha): 90; Plant response rating, Wheat ([20]; 125 g ai/ha): 0; Plant response rating, Wheat ([20]; 500 g ai/ha, approx. 10 d): 20 |

Source: US10681909B2, “Herbicidal triazoles” (FMC Corporation, priority 2014, dated 2020)
